Laboratory results as given in patent US20090124678A1, “Combined Use of Metconazole and Epoxiconazole for Reducing or Preventing the Contamination of Cereals With Mycotoxins” (priority 2005, published 2009).

What was measured:
[1] = tested on: Fusarium sp.; experiment: Fusarium ear infection of winter wheat under field conditions, determined visually; format: in vivo, Fusarium sp. on winter wheat cultivar "Ritmo"; details: winter wheat "Ritmo" inoculated with Fusarium sp. at GS 25-29, sprayed at GS 63, assessed three weeks after application, relative to untreated control, metconazole 45 g/ha, epoxyconazole 75 g/ha
Method: (§1) At growth stage GS 25-29 (tillering), outdoor winter wheat of the cultivar “Ritmo” was inoculated with rye grains infected with Fusarium sp. The active compounds were applied at growth stage GS 63 (beginning of flowering). Both metconazole and epoxyconazole were used as finished formulations (metconazole: trade name “Caramba”; epoxyconazole: trade name “Opus”; metconazole as SL=[…]; epoxyconazole as SC=suspensible concentrate). These formulations were diluted with water to the desired concentration, and the plants were treated by spraying with these diluted preparations. The active compounds were applied jointly as a tank mix. For comparison, the individual fungicides were also only employed on their own. Three weeks after application, the infection of the ears with Fusarium fungi was determined visually. The wheat grains were harvested and the DON content of the grains was determined after extraction and analysis by HPLC/MS. For comparative evaluation, the Fusarium infection and the DON value found for untreated wheat were defined as 100%. […] The expected efficacies for active compound combinations were determined using Colby's formula (S. R. Colby, Calculating Synergistic and Antagonistic Responses of Herbicide Combinations, Weeds, 15, pages 20-22, 1967) and compared with the observed efficacies.

[2] = tested on: deoxynivalenol (DON); experiment: DON content of harvested wheat grains after field treatment (extraction, HPLC/MS); format: in vivo, Fusarium sp. on winter wheat cultivar "Ritmo"; details: relative to untreated wheat (33.7 mg/kg DON), sprayed at GS 63, metconazole 45 g/ha, epoxyconazole 75 g/ha
Method: as §1

Row | Structure (SMILES) | Effect on infection [%] [1] [%] | Reduction of DON content [%] [2] [%]
1 | Fc1ccc([C@]2(Cn3cncn3)O[C@H]2c2ccccc2Cl)cc1 (racemic) [epoxyconazole] | 5 | 0
2 | CC1(C)CCC(Cc2ccc(Cl)cc2)C1(O)Cn1cncn1 (stereo not shown) [metconazole] | 27 | 33
